Publication PMC6021035, “Insights into biological activity of ureidoamides with primaquine and amino acid moieties” (Journal of Enzyme Inhibition and Medicinal Chemistry, 2018)
≈ marks a conversion by molar mass, not a printed value.

Tests used:
S. aureus strains = experiment: MIC determination, S. aureus strains; format: cell-based, Staphylococcus aureus; details: for MIC: Staphylococcus aureus, S. aureus strains, lowest value quoted in text; for MIC range: tested Staphylococcus spp.
Procedure: (§1) Before analysis, compounds 5a–f were dissolved in 96% ethanol in a concentration of 2 mg/ml as stock solutions. Inoculums were prepared with fresh cultures of microbial strains, cultured on tryptic-soy agar or Sabouraud 2% (m/v) dextrose agar for 18 h (48–72 h for fungi) at 30 °C with physiological saline containing approximately […]. Inoculum density (0.5 McFarland units) was adjusted with a bio Mériex (France) densitometer. Minimum inhibitory concentration (MIC) was determined by the twofold micro-dilution method in Mu¨ller–Hinton broth for bacterial strains and RPMI 1640 + 2% m/v dextrose for fungi according to the EUCAST recommendations in a sterile 96-well flat-bottom plastic tissue culture plate. MIC was determined using a linear regression curve after incubation of compounds and reading the optical density at 570 nm using an iEMS microplate reader. […] All tests were performed in triplicate and expressed as the mean.

E. coli = experiment: MIC determination, E. coli as summarised in text; format: cell-based; details: Escherichia coli, both strains
Procedure: as §1

E. coli (both strains) = experiment: Minimum biofilm eradication assay, E. coli both strains; format: cell-based, Escherichia coli
Procedure: We tested the susceptibility of different bacterial and yeast strains to compounds 5a–f by determining the minimum biofilm eradication concentration (MBEC). The test was performed in a sterile 96-well flat-bottom plastic tissue culture plate (TPP, Switzerland). Each well was filled with 100 µl of bacterial (10^7 CFUs/ml) or yeast (5 × 10^6 CFUs/ml) suspension. When the possibility of inhibition of yeast biofilm formation was tested, the wells were pre-treated with FBS (250 µl per well). Negative controls contained broth only. Positive controls were performed using standard antibacterial and antifungal drugs gentamycin and amphotericin B, respectively. The plates were covered and incubated aerobically for 24 h (bacteria) or 48 h (yeast) at 37 °C. Following the incubation period, each well was aspirated and washed three times with 250 µl of PBS and vigorously shaken in order to remove all non-adherent bacteria/yeast. The remaining attached cells were fixed with methanol (15 min) and the plates were left to dry overnight. The formed biofilm was stained with crystal violet (1%, 5 min). Excess stain was rinsed by placing the plate under running tap water and the plates were left to dry for 24 h. Adherent cells were resolubilized with acetic acid (33%, v/v). The optical density of each well was measured at 570 nm using a Multiscan plate reader. […]

Row | SMILES | MIC (S. aureus strains) [µg/mL] | MIC range (S. aureus strains) [µg/mL] | MIC (E. coli) [µg/mL] | MBEC (E. coli (both strains)) [µg/mL]
1 | COc1cc(NC(C)CCCNC(=O)NC(CC(C)C)C(=O)NC(c2ccccc2)c2ccccc2)c2ncccc2c1 (stereo not drawn) [Compound 5a, N-(diphenylmethyl)-2-[({4-[(6-methoxyquinolin-8-yl)amino]pentyl}carbamoyl)amino]-4-methylpentanamide] | 6.5 (≈ 11.2 µM) | 6.5 to 15 |  | 
2 | COc1cc(NC(C)CCCNC(=O)NC(C(=O)NC(c2ccccc2)c2ccccc2)c2ccc(Cl)cc2)c2ncccc2c1 (stereo not drawn) [Compound 5d, 2–(4-chlorophenyl)-N-(diphenylmethyl)-2-[({4-[(6-methoxyquinolin-8-yl)amino]pentyl}carbamoyl)amino]acetamide] | 6.5 (≈ 10.2 µM) | 12.5 to 25 |  | 
3 | COc1cc(NC(C)CCCNC(=O)NC(C(=O)NC(c2ccccc2)c2ccc(Cl)cc2)c2ccc(Cl)cc2)c2ncccc2c1 (stereo not drawn) [Compound 5e, 2–(4-chlorophenyl)-N-[(4-chlorophenyl)(phenyl)methyl]-2-[({4-[(6-methoxyquinolin-8-yl)amino]pentyl}carbamoyl)amino]acetamide] |  |  | 45 to 60 (≈ 67.1 to 89.5 µM) | 
4 | COc1cc(NC(C)CCCN)c2ncccc2c1 (stereo not drawn) [PQ, 8-[(4-amino-1-methylbutyl)amino]-6-methoxyquinoline, reference compound] |  |  |  | 25
